{"source": "patent US8192999B2", "about": "“Method for the identification of macromolecule targets of analytes” (priority 2005, dated 2012)", "test_system": "E. coli proteins", "experiment": "Non-specific binding of MTX to proteins of E. coli cell lysate (HPLC co-fractionation)", "conditions": "MTX-spiked E. coli extract; FIG. 9", "data": [{"compound": "CN(Cc1cnc2nc(N)nc(N)c2n1)c1ccc(C(=O)N[C@@H](CCC(=O)O)C(=O)O)cc1", "note": "[MTX, methotrexate]", "values": [{"measurement": "non-specific binding of the drug to E. coli proteins", "result": "no non-specific binding of the drug to any E. coli proteins was detected"}]}]}
